“And” between values parts separate entries of the source, which are not always exact repeats. Equal values may be shown once.
Assays:
factor XIa = biological target: T1, factor XIa (Homo sapiens, UniProt P03951); experiment: Target specificity profiling: factor XIa; format: biochemical; settings: replicates R1-R3
T1 construct: 1 nM factor XIa (Innovative Research); purchased Innovative Research
Description: (§1) The protease specificity was assessed by testing the inhibition of a series of trypsin-like serine proteases using fluorogenic or chromogenic substrates. Peptide dilutions ranging from 40 μM to 40 nM were prepared for all proteases except thrombin (1 μM to 1 nM). […]. The following fluorogenic substrates were used at a final concentration of 50 μM: Z-Gly-Gly-Arg-AMC (Bachem) for thrombin and trypsin; Z-Phe-Arg-AMC (Bachem) for plasma kallikrein; Boc-Phe-Ser-Arg-AMC (Bachem) for factor XIa; and Boc-Gln-Gly-Arg-AMC (Bachem) for factor XIIa. […]. Reactions were performed in a volume of 150 μl in 96-well plates. A volume of 50 μl of twofold dilutions of macrocycle in assay buffer was pipetted into the wells of the plates. A volume of 50 μl of protease in assay buffer was added to each well and incubated for 15 min. A volume of 50 μl of substrate in assay buffer containing 3% DMSO was added. Fluorescence intensity was measured for 30 min using an Infinite M200 Pro plate reader (Tecan; excitation at 368 nm, emission at 467 nm), with one measurement every minute. For APC protease, absorbance was measured at 405 nm using the same plate reader for a period of 30 min with one reading every minute. Reactions were performed at 25 °C. Data were analyzed by Excel (version 2016).

plasma kallikrein = biological target: T2, plasma kallikrein (Homo sapiens, UniProt P03952); experiment: Target specificity profiling: plasma kallikrein; format: biochemical; settings: replicates R1-R3
T2 construct: 0.25 nM plasma kallikrein (Innovative Research); purchased Innovative Research
T2 sequence (P03952 391-638 limits assumed): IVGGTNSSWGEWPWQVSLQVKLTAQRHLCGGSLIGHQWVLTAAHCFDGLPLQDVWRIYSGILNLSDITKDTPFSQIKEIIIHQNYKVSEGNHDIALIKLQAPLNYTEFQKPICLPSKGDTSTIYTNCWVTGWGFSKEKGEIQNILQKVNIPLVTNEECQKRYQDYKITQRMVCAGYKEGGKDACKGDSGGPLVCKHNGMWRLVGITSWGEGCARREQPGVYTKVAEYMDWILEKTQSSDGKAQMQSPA
T2 sequence (P03952 20-390 partner limits assumed): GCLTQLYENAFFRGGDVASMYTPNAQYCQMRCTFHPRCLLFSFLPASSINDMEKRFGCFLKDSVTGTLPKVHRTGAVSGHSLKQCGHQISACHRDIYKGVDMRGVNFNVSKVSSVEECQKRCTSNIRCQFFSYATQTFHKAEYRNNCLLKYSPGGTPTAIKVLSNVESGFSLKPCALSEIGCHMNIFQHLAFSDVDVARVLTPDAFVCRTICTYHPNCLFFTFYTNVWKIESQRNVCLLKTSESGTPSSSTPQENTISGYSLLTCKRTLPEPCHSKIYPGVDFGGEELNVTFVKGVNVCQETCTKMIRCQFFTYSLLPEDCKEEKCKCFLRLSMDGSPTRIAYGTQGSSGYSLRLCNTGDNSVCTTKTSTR
Description: as §1

thrombin = biological target: T3, thrombin (Homo sapiens, UniProt P00734); experiment: Target specificity profiling: thrombin; format: biochemical; settings: replicates R1-R3
T3 construct: […]; purchased Molecular Innovations
Description: as §1

factor XIIa = biological target: T4, factor XIIa (Homo sapiens, UniProt P00748); experiment: Target specificity profiling: factor XIIa; format: biochemical; settings: replicates R1-R3
T4 construct: 5.3 nM factor XIIa (Molecular Innovations); purchased Molecular Innovations
T4 sequence (P00748 373-615 limits assumed, other chains not shown): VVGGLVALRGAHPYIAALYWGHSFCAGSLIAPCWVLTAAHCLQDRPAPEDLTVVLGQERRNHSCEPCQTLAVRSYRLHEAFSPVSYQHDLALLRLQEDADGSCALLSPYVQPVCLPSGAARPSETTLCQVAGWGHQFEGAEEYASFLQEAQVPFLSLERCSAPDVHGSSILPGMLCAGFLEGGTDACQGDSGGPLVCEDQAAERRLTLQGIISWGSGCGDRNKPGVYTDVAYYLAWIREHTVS
Description: as §1

[1] = biological target: T5, activated protein C (APC) (Homo sapiens, UniProt P04070); experiment: Target specificity profiling: activated protein C; format: biochemical; settings: replicates R1-R3
T5 construct: purchased Molecular Innovations
T5 sequence (P04070 212-461 limits assumed): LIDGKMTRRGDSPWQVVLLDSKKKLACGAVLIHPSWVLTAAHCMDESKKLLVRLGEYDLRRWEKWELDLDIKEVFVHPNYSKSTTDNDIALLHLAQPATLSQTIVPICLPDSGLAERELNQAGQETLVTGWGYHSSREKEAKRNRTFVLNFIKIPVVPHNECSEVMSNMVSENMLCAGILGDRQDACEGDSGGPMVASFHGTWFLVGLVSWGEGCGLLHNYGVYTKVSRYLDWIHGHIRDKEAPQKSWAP
T5 sequence (P04070 43-197 partner limits assumed): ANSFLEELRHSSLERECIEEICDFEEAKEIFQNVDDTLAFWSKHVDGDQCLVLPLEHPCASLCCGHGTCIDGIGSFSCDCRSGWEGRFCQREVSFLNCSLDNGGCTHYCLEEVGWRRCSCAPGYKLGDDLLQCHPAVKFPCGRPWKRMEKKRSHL
Description: as §1

[2] = Measurement of in vivo gastrointestinal stability in rats; parameters: species or system rat; settings: for Concentration in organ extract: rat n = 1, 30 min after p.o. 10 mg kg^−1
Description: Peptide 43 was dissolved in 10% Cremophor EL and 5% DMSO in water at a concentration of 1 mg ml^−1 and administrated by oral gavage to a rat at a dose of 10 mg kg^−1. The rat was killed 30 min after the administration using a CO2 chamber followed by cervical dislocation. Stomach, small intestine (duodenum/jejunum and ileum were collected separately) and large intestine were removed and immediately frozen in pre-cooled containers on dry ice. Organs and their respective content were collected separately to facilitate homogenization and sample processing. The organs were homogenized using a mortar and pestle on dry ice and liquid nitrogen to avoid thawing of the samples. Peptides were extracted by addition of 2 ml of extraction buffer containing 50 mM Tris-HCl (pH 8.0), 150 mM NaCl, 5 mM EDTA, 0.01% Triton-X, 1 mM PMSF and protease inhibitor cocktail (Sigma-Aldrich, P8340) per gram of organ or organ content weight and sonicating the resulting suspension for 5 min. Samples were centrifuged at 16,000g for 10 min, and 40 μl of the resulting supernatant was mixed with 120 μl of a cold acetonitrile:water (9:1) solution containing an internal standard (5 μg ml^−1). Samples were analyzed and quantified by LC–MS as described above.

T1 sequence (P03951 388-625 limits assumed): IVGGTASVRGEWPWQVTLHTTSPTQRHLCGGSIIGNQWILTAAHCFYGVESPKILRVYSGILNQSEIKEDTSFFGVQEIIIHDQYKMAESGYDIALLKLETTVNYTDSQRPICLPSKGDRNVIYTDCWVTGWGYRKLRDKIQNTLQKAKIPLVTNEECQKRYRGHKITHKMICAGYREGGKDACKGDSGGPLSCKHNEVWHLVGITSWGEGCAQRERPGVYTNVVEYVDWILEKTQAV
T1 sequence (P03951 19-387 partner limits assumed): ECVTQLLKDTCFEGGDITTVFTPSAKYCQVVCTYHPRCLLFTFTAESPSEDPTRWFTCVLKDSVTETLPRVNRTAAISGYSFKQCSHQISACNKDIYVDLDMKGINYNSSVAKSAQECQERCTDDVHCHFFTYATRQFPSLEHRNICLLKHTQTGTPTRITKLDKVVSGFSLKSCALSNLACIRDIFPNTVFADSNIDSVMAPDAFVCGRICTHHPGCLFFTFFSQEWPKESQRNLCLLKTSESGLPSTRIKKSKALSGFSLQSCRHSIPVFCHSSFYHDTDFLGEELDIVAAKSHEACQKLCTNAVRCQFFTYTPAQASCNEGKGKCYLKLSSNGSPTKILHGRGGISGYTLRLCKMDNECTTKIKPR

## O=C1C[C@H]2CCCN2C(=O)[C@H](Cc2ccccc2)NC(=O)[C@@H](NC(=O)c2ccc(Cl)cc2)CCC=CCCCCN1 (mixture of isomers) [peptide 46]
Factor XIa; inhibitor 1.00E+04 nM
  Residual protease activity, Factor Xia: 95.7 and 95.4 and 95.1
Factor XIa; inhibitor 1.25E+03 nM
  Residual protease activity, Factor Xia: 96.1 and 95.1 and 96.0
Factor XIa; inhibitor 1.56E+02 nM
  Residual protease activity, Factor Xia: 107.0 and 105.2 and 107.6
Factor XIa; inhibitor 2.00E+04 nM
  Residual protease activity, Factor Xia: 93.9 and 90.3 and 94.5
Factor XIa; inhibitor 2.50E+03 nM
  Residual protease activity, Factor Xia: 100.7 and 100.4 and 101.9
Factor XIa; inhibitor 3.12E+02 nM
  Residual protease activity, Factor Xia: 89.3 and 92.0 and 107.2
Factor XIa; inhibitor 3.91E+01 nM
  Residual protease activity, Factor Xia: 99.1 and 100.7 and 101.5
Factor XIa; inhibitor 4.00E+04 nM
  Residual protease activity, Factor Xia: 101.0 and 99.6 and 99.1
Factor XIa; inhibitor 5.00E+03 nM
  Residual protease activity, Factor Xia: 104.3 and 104.7 and 110.9
Factor XIa; inhibitor 6.25E+02 nM
  Residual protease activity, Factor Xia: 94.0 and 96.1 and 97.6
Factor XIa; inhibitor 7.81E+01 nM
  Residual protease activity, Factor Xia: 100.7 and 100.8 and 101.1
Plasma kallikrein; inhibitor 1.00E+04 nM
  Residual protease activity, Plasma kallikrein: 100.3 and 97.1 and 98.3
Plasma kallikrein; inhibitor 1.25E+03 nM
  Residual protease activity, Plasma kallikrein: 101.3 and 99.9 and 96.3
Plasma kallikrein; inhibitor 1.56E+02 nM
  Residual protease activity, Plasma kallikrein: 96.4 and 108.1 and 104.0
Plasma kallikrein; inhibitor 2.00E+04 nM
  Residual protease activity, Plasma kallikrein: 101.2 and 98.7 and 98.9
Plasma kallikrein; inhibitor 2.50E+03 nM
  Residual protease activity, Plasma kallikrein: 103.4 and 100.4 and 99.0
Plasma kallikrein; inhibitor 3.12E+02 nM
  Residual protease activity, Plasma kallikrein: 102.1 and 105.6 and 105.7
Plasma kallikrein; inhibitor 3.91E+01 nM
  Residual protease activity, Plasma kallikrein: 104.4 and 99.7 and 94.4
Plasma kallikrein; inhibitor 4.00E+04 nM
  Residual protease activity, Plasma kallikrein: 101.1 and 97.0 and 98.9
Plasma kallikrein; inhibitor 5.00E+03 nM
  Residual protease activity, Plasma kallikrein: 98.7 and 96.4 and 96.9
Plasma kallikrein; inhibitor 6.25E+02 nM
  Residual protease activity, Plasma kallikrein: 106.1 and 103.7 and 102.1
Plasma kallikrein; inhibitor 7.81E+01 nM
  Residual protease activity, Plasma kallikrein: 103.2 and 99.7 and 96.6
thrombin; inhibitor 1.00E+03 nM
  Residual protease activity, Thrombin (human): 3.9 and 4.0 and 3.8
thrombin; inhibitor 1.25E+02 nM
  Residual protease activity, Thrombin (human): 27.0 and 25.5 (2×)
thrombin; inhibitor 1.56E+01 nM
  Residual protease activity, Thrombin (human): 75.5 and 73.3 and 73.1
thrombin; inhibitor 1.95E+00 nM
  Residual protease activity, Thrombin (human): 95.2 and 97.7 and 95.3
thrombin; inhibitor 2.50E+02 nM
  Residual protease activity, Thrombin (human): 15.1 and 14.2 and 14.6
thrombin; inhibitor 3.12E+01 nM
  Residual protease activity, Thrombin (human): 59.3 and 58.1 and 56.4
thrombin; inhibitor 3.91E+00 nM
  Residual protease activity, Thrombin (human): 91.5 and 93.3 and 91.3
thrombin; inhibitor 5.00E+02 nM
  Residual protease activity, Thrombin (human): 7.6 and 7.4 (2×)
thrombin; inhibitor 6.25E+01 nM
  Residual protease activity, Thrombin (human): 44.1 and 42.5 and 42.8
thrombin; inhibitor 7.81E+00 nM
  Residual protease activity, Thrombin (human): 89.2 and 86.5 and 77.1
thrombin; inhibitor 9.77E-01 nM
  Residual protease activity, Thrombin (human): 99.8 and 102.7 and 98.9
Factor XIIa; inhibitor 1.00E+04 nM
  Residual protease activity, Factor XIIa: 96.5 and 104.4 and 105.7
Factor XIIa; inhibitor 1.25E+03 nM
  Residual protease activity, Factor XIIa: 99.3 and 104.0 and 102.2
Factor XIIa; inhibitor 1.56E+02 nM
  Residual protease activity, Factor XIIa: 96.6 and 95.7 and 104.9
Factor XIIa; inhibitor 2.00E+04 nM
  Residual protease activity, Factor XIIa: 93.0 and 104.6 and 101.1
Factor XIIa; inhibitor 2.50E+03 nM
  Residual protease activity, Factor XIIa: 101.4 and 100.3 and 106.4
Factor XIIa; inhibitor 3.12E+02 nM
  Residual protease activity, Factor XIIa: 98.7 and 101.4 and 105.7
Factor XIIa; inhibitor 3.91E+01 nM
  Residual protease activity, Factor XIIa: 100.9 and 93.5 and 95.2
Factor XIIa; inhibitor 4.00E+04 nM
  Residual protease activity, Factor XIIa: 94.7 and 100.5 and 101.1
Factor XIIa; inhibitor 5.00E+03 nM
  Residual protease activity, Factor XIIa: 96.4 and 102.9 and 108.8
Factor XIIa; inhibitor 6.25E+02 nM
  Residual protease activity, Factor XIIa: 97.3 and 115.8 and 103.1
Factor XIIa; inhibitor 7.81E+01 nM
  Residual protease activity, Factor XIIa: 96.1 and 102.4 and 80.0
[1]; inhibitor 1.00E+04 nM
  Residual protease activity, APC: 101.7 and 94.1 and 93.6
[1]; inhibitor 1.25E+03 nM
  Residual protease activity, APC: 93.2 and 97.3 and 95.1
[1]; inhibitor 1.56E+02 nM
  Residual protease activity, APC: 95.1 and 104.3 and 101.7
[1]; inhibitor 2.00E+04 nM
  Residual protease activity, APC: 94.9 and 98.4 and 96.8
[1]; inhibitor 2.50E+03 nM
  Residual protease activity, APC: 94.9 and 96.5 and 96.6
[1]; inhibitor 3.12E+02 nM
  Residual protease activity, APC: 95.1 and 90.6 and 94.4
[1]; inhibitor 3.91E+01 nM
  Residual protease activity, APC: 96.3 and 96.7 and 99.0
[1]; inhibitor 4.00E+04 nM
  Residual protease activity, APC: 95.7 and 97.0 and 95.5
[1]; inhibitor 5.00E+03 nM
  Residual protease activity, APC: 98.3 and 99.0 and 99.1
[1]; inhibitor 6.25E+02 nM
  Residual protease activity, APC: 100.4 and 91.2 and 89.1
[1]; inhibitor 7.81E+01 nM
  Residual protease activity, APC: 108.2 and 108.3 and 107.3

## O=C1C[C@H]2CCCN2C(=O)[C@H](Cc2ccccc2)NC(=O)[C@@H](NC(=O)c2ccc(Cl)s2)CCC=CCCCCN1 [peptide 43]
[2]; Large intestine - content
  Concentration in organ extract: 656 nM
[2]; Large intestine
  Concentration in organ extract: 500 nM
[2]; Lower small instestine - content
  Concentration in organ extract: 2900 nM
[2]; Lower small instestine
  Concentration in organ extract: 600 nM
[2]; Stomach - content
  Concentration in organ extract: 87600 nM
[2]; Stomach
  Concentration in organ extract: 31600 nM
[2]; Upper small instestine - content
  Concentration in organ extract: 13100 nM
[2]; Upper small instestine
  Concentration in organ extract: 2600 nM
[2]; rats, 10 mg kg^−1 p.o., 30 min, stomach, small and large intestine
  in vivo gastrointestinal stability: large fraction of the peptide fully intact
